Non-standard residues stand in square brackets, D forms with d. Residues, ends and D or L forms follow the SMILES beside them. *: point of attachment. Boc = CC(C)(C)OC(=O)*
Test system: gastric acid secretion induced by the administration of pentagastrin
Assay: Inhibition of pentagastrin-induced gastric acid secretion in anesthetized rats with perfused stomach (modified Ghosh and Schild)
Format: in vivo
Parameters: key to rating in assay: antagonism of the secretory response induced by pentagastrin: A test compound is considered active if the standard pentagastrin response is blocked to the extent of at least 50%
Conditions: urethane-anesthetized male Charles River rats, gastric effluent pH, pentagastrin 0.1 mcg./rat intravenously
From the text: The compounds of the present invention are useful in consequence of their valuable pharmacological properties. They are, for example, gastric anti-secretory agents as evidenced by their ability to inhibit the gastric acid secretion induced by the administration of pentagastrin.
The assay utilized for detection of that property is a modification of the procedure described by Ghosh and Schild, J. Physiol., Lond., 128:35-36P (1955); Br. J. Pharmacol. Chemother., […]:54-61 (1958); and by Smith et al., Br. J. Pharmacol., 38:206-213 (1970). The details of that assay are as follows:
A group of male Charles River rats weighing 300-400 g. are anesthetized by the intramuscular administration of urethane at a dose of 1.5 g./kg. The trachea is exposed and cannulated and a polyethylene tube is passed through the esophagus into the cardiac junction of the stomach and is ligated in place in the neck, excluding the vagal nerves. The external jugular vein is exposed and cannulated to facilitate intravenous administration. The femoral artery is exposed and cannulated for recording of blood pressure. The abdomen is opened. […] The test compounds are evaluated for their ability to antagonize the secretory response induced by the administration of pentagastrin. […]

SMILES | inhibition of gastric acid secretion induced by pentagastrin (result in words) | rating in assay: antagonism of the secretory response induced by pentagastrin
CSCC[C@H](NC(=O)OC(C)(C)C)C(=O)N[C@@H](CC(=O)O)C(=O)N[C@H](C)C(N)=O [N-t-butoxycarbonyl-L-methionyl-L-aspartyl-D-alanine amide] (Boc-Met-Asp-[dA]-NH2) | particularly active | 
CSCC[C@H](NC(=O)[C@H](Cc1c[nH]c2ccccc12)NC(=O)OC(C)(C)C)C(=O)N[C@@H](CC(=O)O)C(=O)N[C@H](C)C(N)=O [N-t-butoxycarbonyl-L-tryptophanyl-L-methionyl-L-aspartyl-D-alanine amide] (Boc-WMD[dA]-NH2) |  | active

Reference: patent US4012367A, “Anti-ulcer polypeptides containing L-aspartic acid and intermediates thereto” (G. D. Searle & Co., priority 1976, dated 1977)
